Results as given in PubChem BioAssay (NCI).
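96-well plates; 48 h exposure; 5 concentrations. Endpoints by linear interpolation between flanking doses. Not reached: highest tested concentration assigned. GI50: concentration for 50% inhibition of growth. TGI: concentration producing complete growth inhibition.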

Key:
Assay in all cases: DTP human tumour cell line panel, 48 h
[1] = test system: SK-MEL-28 melanoma
[2] = test system: SF-295 CNS
[3] = test system: SW-620 colon
[4] = test system: A498 renal
[5] = test system: NCI-H460 lung
[6] = test system: SNB-78 CNS
[7] = test system: LXFL 529 NSCLC
[8] = test system: HT29 colon
[9] = test system: M19-MEL melanoma
[10] = test system: NCI-H522 lung
[11] = test system: MDA-MB-435
[12] = test system: KM20L2 colon

| SMILES | TGI [1] [µM] | TGI [2] [µM] | TGI [3] [µM] | TGI [4] [µM] | TGI [5] [µM] | TGI [6] [µM] | TGI [7] [µM] | TGI [8] [µM] | TGI [9] [µM] | TGI [10] [µM] | GI50 [1] [µM] | GI50 [11] [µM] | TGI [11] [µM] | GI50 [2] [µM] | GI50 [3] [µM] | GI50 [4] [µM] | GI50 [5] [µM] | GI50 [8] [µM] | GI50 [10] [µM] | TGI [12] [µM] |
| --- | --- | --- | --- | --- | --- | --- | --- | --- | --- | --- | --- | --- | --- | --- | --- | --- | --- | --- | --- | --- |
| Cc1c2cc[n+](C)cc2c(C)c2c1[nH]c1ccc(OC(C)(C)C)cc12 | > 100 | > 100 | > 100 | > 100 | > 100 | > 100 | > 100 | > 100 | > 100 | > 100 |  |  |  |  |  |  |  |  |  |  |
| Cc1ccccc1N=C(c1ccccc1)C1C(=O)c2ccccc2C1=O | > 100 | 36.5 | > 100 | > 100 | 38 |  |  | > 100 |  | 17.7 | 24.9 | 3.44 | 14.8 | 13.8 | 25.3 | 24.4 | 6.91 | 13.7 | 1.99 |  |
| Nc1[nH]c(=S)[nH]c(=O)c1N=Nc1c(Br)cc(S(N)(=O)=O)cc1Br | > 100 | > 100 | > 100 | > 100 | > 100 |  |  | > 100 |  | > 100 |  |  | > 100 |  |  |  |  |  |  |  |
| Cc1cccc(Nc2ncc(-c3ccccc3)o2)c1 | > 25 | > 25 | > 25 | > 25 | > 25 |  |  | > 25 |  | > 25 | > 25 | > 25 | > 25 | > 25 | > 25 | > 25 | > 25 | > 25 | > 25 |  |
| O=[N+]([O-])c1ccc(NC(c2ccccc2)c2ccc3cccnc3c2O)cc1 (stereo not given) | > 100 | > 100 | > 100 | 8.13 | 1.39 |  |  | > 100 |  | > 100 | 0.697 | 0.422 | > 100 | 0.314 | 0.389 | 0.634 | 0.253 | 0.487 | 0.392 |  |
| Cn1cc(-c2nc(-c3c[nH]c4ccccc34)cs2)c2cccnc21 | > 100 | 19.8 | > 100 | 6.1 | > 100 |  |  | 18.3 |  | 6.67 | 0.71 | 0.0321 | 0.25 | 0.268 | 0.221 | 0.315 | 0.339 | 0.166 | 0.0586 |  |
| CCCCCCCCCCCCCC(=O)OCC1OC(=O)C(O)C1O (stereo not given) | > 100 | > 100 | > 100 | > 100 |  |  | > 100 | > 100 | > 100 | > 100 |  |  |  |  |  |  |  |  |  | > 100 |
| CC(C)Cc1cc(-c2cccn2C)c(C#N)c(=O)[nH]1 | > 100 | > 100 | > 100 | > 100 | > 100 |  |  | > 100 |  | > 100 | > 100 | > 100 | > 100 | > 100 | > 100 | > 100 | > 100 | > 100 | > 100 |  |
| CC(C)c1cccc(C(C)C)c1NC(=O)/C(Cc1nc2ccc(Cl)cc2[nH]c1=O)=N\NC(=O)C[N+](C)(C)C | > 100 | > 100 | > 100 | > 100 | > 100 |  |  | > 100 | > 100 | > 100 |  |  |  |  |  |  |  |  |  | > 100 |
| c1ccc2c(c1)CCCc1nnc3nc4ccccc4n3c1-2 | > 100 | > 100 | 24.2 | > 100 | 16.6 |  |  | 82.5 |  | 33 | 9.43 | 7.32 | > 100 | 9.01 | 5.06 | 16.6 | 3.65 | 10.1 | 12.7 |  |
| O=S1c2ccccc2N=C(c2cccs2)CC1c1ccccc1O (stereo not given) | > 100 | > 100 | > 100 | 99.8 | > 100 |  | > 100 | > 100 | > 100 | > 100 |  |  |  |  |  |  |  |  |  | > 100 |
| CN(C)c1ccc(/C=C(\C#N)C(=O)c2ccccc2)cc1Br | > 100 | > 100 | > 100 |  | > 100 | > 100 | > 100 | > 100 |  | > 100 |  |  |  |  |  |  |  |  |  | > 100 |
| Cc1c(-c2c(F)cc(C(N)=O)c3[nH]c4c(c23)CC[C@H](C(C)(C)O)C4)cccc1-n1c(=O)c2cccc(F)c2n(C)c1=O | > 100 | 39.6 | > 100 | 10.2 | > 100 |  |  | > 100 |  | 32.9 | 4.59 | 3.81 | > 100 | 4.36 | 2.44 | 2.8 | 3.43 | 0.864 | 2.81 |  |
| CCn1c(C)nc([N+](=O)[O-])c1Sc1ncc[nH]1 | > 100 | > 100 | > 100 | > 100 | > 100 | > 100 | > 100 | > 100 | > 100 | 38.1 |  |  |  |  |  |  |  |  |  |  |
| N/C(=N/O)NOCCC(N)C(=O)O (stereo not given) | > 100 | > 100 | > 100 | > 100 | > 100 |  |  | > 100 |  | > 100 | > 100 | > 100 | > 100 | > 100 | > 100 | > 100 | > 100 | > 100 | > 100 |  |
| COc1cc(-c2cc(-c3ccc(Nc4nc(Nc5ccc(Cl)cc5)nc(Nc5ccc(Cl)cc5)n4)cc3)no2)cc(OC)c1OC | > 100 | > 100 | > 100 | > 100 | 46.4 |  |  | > 100 |  | > 100 | 14.4 | 7.15 | > 100 | 35.1 | 19.9 | 2.71 | 6.79 | 16.9 | 2.89 |  |
| O=C1NC(=O)/C(=C/c2ccc3nccc(-c4ccncc4)c3c2)S1 | 2.29 | 2.13 | > 10 | 0.208 | > 10 |  |  | 6.29 |  | 1.81 | 0.237 | 0.402 | > 7.25 | 0.356 | 0.517 | 0.0335 | 0.487 | 0.423 | 0.23 |  |
